Source: patent US20110112133A1, “DIHYDRO PYRROLOQUINOLINE DERIVATIVES” (Takeda Pharmaceutical Company Limited, priority 2009, published 2011)

Experiments:
hNK2 receptor [1] = target: T1, hNK2 receptor (Homo sapiens, UniProt P21452); assay: Radioligand receptor binding inhibitory activity using membrane fraction of hNK2 receptor-expressing CHO cell ([125I]-NKA); settings: for inhibition at 1 µM / inhibition at 0.1 µM / inhibition at 0.01 µM / inhibition at 10 µM: read-out: hNK2 receptor binding inhibitory activity (inhibitory rate (%)); for inhibition at 10 µM: test compound 10^−5 M
T1 construct: host or cells: CHO cells
T1 sequence (P21452 1-398): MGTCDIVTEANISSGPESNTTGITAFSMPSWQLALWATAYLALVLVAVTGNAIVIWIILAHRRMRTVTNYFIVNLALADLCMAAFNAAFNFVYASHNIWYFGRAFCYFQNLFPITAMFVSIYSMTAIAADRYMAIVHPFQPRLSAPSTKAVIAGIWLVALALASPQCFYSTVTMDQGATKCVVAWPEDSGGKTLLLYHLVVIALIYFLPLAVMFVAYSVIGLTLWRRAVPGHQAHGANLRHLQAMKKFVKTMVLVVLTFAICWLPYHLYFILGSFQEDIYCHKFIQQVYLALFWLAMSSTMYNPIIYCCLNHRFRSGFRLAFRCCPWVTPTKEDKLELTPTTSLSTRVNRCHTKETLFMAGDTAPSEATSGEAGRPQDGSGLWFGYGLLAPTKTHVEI
Procedure: Radioligand Receptor Binding Inhibitory Activity Using Membrane Fraction of hNK2 Receptor-Expressing CHO Cell
hNK2 receptor-expressing CHO cells (produced by EUROSCREEN) were cultured in a flask placed HAM-F12 medium containing 400 μg/mL Geneticin, 100 U/mL penicillin, 100 μg/mL streptomycin and 10% inactivated serum. The medium was removed and adhered cells were washed with PBS, and PBS containing 5 mM EDTA was added to detach the cells from the flask. The cells were recovered by centrifugation, suspended in suspending buffer A (15 mM Tris-HCl (pH 7.5), 12.5 mM MgCl2, 0.3 mM EDTA, 1 mM EGTA (Ethylene Glycol Bis(beta-aminoethylether)-N,N,N,N-tetraacetic Acid)), disrupted by POLYTRON homogenizer (manufactured by KINEMATICA) and centrifuged at 850×g for 10 min at 4° C. The supernatant was recovered and ultracentrifuged at 142000×g for 60 min at 4° C. The precipitated fraction was suspended in suspending buffer B (7.5 mM Tris-HCl (pH 7.5), 12.5 mM MgCl2, 0.3 mM EDTA, 1 mM EGTA, 250 mM sucrose), and cryopreserved (at −80° C.) as a membrane fraction preparation of hNK2 receptor-expressing CHO cell.
The radioligand receptor binding assay was performed in a 96 well microassay plate format with a final volume of 200 μL.
An assay buffer (50 μL, 50 mM Tris-HCl (pH 7.4), 0.02% bovine serum albumin, 2 μg/mL chymostatin, 40 μg/mL bacitracin, 40 μg/mL APMSF, 3 mM MnCl2) was added to a 96 well microassay plate. Thereto was added 50 μL of the above-mentioned cryopreserved membrane fraction preparation suspended in the assay buffer (20 μg/mL). An assay buffer (50 μL) containing 2% dimethyl sulfoxide was added to examine the total binding, 4 μM unlabeled NKA (produced by Peptide Institute, Inc.) solution (50 μL) diluted with an assay buffer containing 2% dimethyl sulfoxide was added to examine non-specific binding, and a test compound diluted with an assay buffer (50 μL, containing 2% dimethyl sulfoxide) was added. Furthermore, […] [^125I]-NKA (produced by NEN) solution (50 μL) was added to each well.
After reaction at room temperature for 30 min, using a cell harvester (manufactured by PerkinElmer), the reaction was stopped by rapid filtration on a unifilter plate (GF/C) (manufactured by PerkinElmer), which had been immersed in 0.3% aqueous polyethyleneimine solution for one day, and the cells were washed 10 times with 50 mM Tris-HCl (pH 7.4) buffer (250 μL) containing 0.02% bovine serum albumin. The GF/C filter plate was dried and 20 μL of MicroScinti-0 (manufactured by PerkinElmer) was added to each well and the radioactivity was measured by TopCount (manufactured by PerkinElmer).
Specific binding is shown by the value obtained by subtracting non-specific binding from the total binding. The binding inhibitory activity of the test compound is shown by the ratio of the value obtained by subtracting the measured value associated with the addition of the test compound from the total binding, to the value of the specific binding.

hNK2 receptor [2] = target: T1, hNK2 receptor; assay: Antagonistic activity determined by intracellular calcium concentration using neurokinin A and hNK2 receptor-expressing CHO cell (FLIPR); type: cell-based; settings: neurokinin A stimulation; for inhibition at 10 µM / inhibition at 1 µM / inhibition at 0.1 µM / inhibition at 0.01 µM: CHO, read-out: Antagonistic activity (inhibitory rate (%))
Procedure: Evaluation of Antagonistic Activity Determined by Intracellular Calcium Concentration Using Test Compound, Neurokinin A and hNK2 Receptor-Expressing CHO Cell
hNK2 receptor-expressing CHO cells were seeded on a 384 well plate at 7.5×10^3 cells/well and cultured for 24 hr. Then the medium was removed, 1× recording medium (30 μL, Calcium kit II-Fluo 4: DOJINDO LABORATORIES, Japan) containing prepared 2.5 μg/mL Fluo 4, 2.5 mM probenecid and 20 mM HEPES was added, and the cells were cultured in CO2 incubator (37° C., 5% CO2) for 1 hr. A test compound diluted with 1× recording medium containing 0.05% bovine serum albumin and 20 mM HEPES (10 μL, 0.6% dimethyl sulfoxide) was added. Thereafter, 3 nM neurokinin A solution (20 μL) was added, and changes in the intracellular calcium concentration were measured by FLIPR (Molecular Devices Corporation, Japan). The inhibitory rate of the test compound was calculated with a reaction using DMSO alone and free of the compound as […] and a reaction using 1 nM NKA as 0% inhibition.

Structure (SMILES) | hNK2 receptor binding inhibitory activity (inhibitory rate (%)) (hNK2 receptor [1]; test compound 10^−6 M) | hNK2 receptor binding inhibitory activity (inhibitory rate (%)) (hNK2 receptor [1]; test compound 10^−7 M) | hNK2 receptor binding inhibitory activity (inhibitory rate (%)) (hNK2 receptor [1]; test compound 10^−8 M) | inhibition at 10 µM (hNK2 receptor [2]; test compound 10^−5 M) | inhibition at 1 µM (hNK2 receptor [2]; test compound 10^−6 M) | inhibition at 0.1 µM (hNK2 receptor [2]; test compound 10^−7 M) | inhibition at 0.01 µM (hNK2 receptor [2]; test compound 10^−8 M) | Antagonistic activity (inhibitory rate (%)) (hNK2 receptor [2]; test compound 10^−5 M) | Antagonistic activity (inhibitory rate (%)) (hNK2 receptor [2]; test compound 10^−6 M) | Antagonistic activity (inhibitory rate (%)) (hNK2 receptor [2]; test compound 10^−7 M) | Antagonistic activity (inhibitory rate (%)) (hNK2 receptor [2]; test compound 10^−8 M) | hNK2 receptor binding inhibitory activity (inhibitory rate (%)) (hNK2 receptor [1]; test compound 10^−6 M, hydrochloride) | hNK2 receptor binding inhibitory activity (inhibitory rate (%)) (hNK2 receptor [1]; test compound 10^−8 M, hydrochloride) | inhibition at 1 µM (hNK2 receptor [1]; test compound 10^−6 M) | inhibition at 0.1 µM (hNK2 receptor [1]; test compound 10^−7 M) | inhibition at 0.01 µM (hNK2 receptor [1]; test compound 10^−8 M) | inhibition at 10 µM (hNK2 receptor [1])
Cc1ccn(-c2ccc(C(=O)N[C@@H]3CCC(F)(F)C[C@@H]3C(=O)N3CCc4c(-c5ncc[nH]5)nc5ccccc5c43)cc2)n1 [Example 1, N-[(1R,2S)-4,4-difluoro-2-{[4-(1H-imidazol-2-yl)-2,3-dihydro-1H-pyrrolo[3,2-c]quinolin-1-yl]carbonyl}cyclohexyl]-4-(3-methyl-1H-pyrazol-1-yl)benzamide] | 101.1% | 100.5% | 99.7% | 88.3% | 102% | 102% | 100% | – | – | – | – | – | – | – | – | – | –
Br.Cc1ccn(-c2ccc(C(=O)N[C@@H]3CCC(F)(F)C[C@@H]3C(=O)N3CCc4c(-c5ncc[nH]5)nc5ccccc5c43)cc2)n1 [Example 2, N-[(1R,2S)-4,4-difluoro-2-{[4-(1H-imidazol-2-yl)-2,3-dihydro-1H-pyrrolo[3,2-c]quinolin-1-yl]carbonyl}cyclohexyl]-4-(3-methyl-1H-pyrazol-1-yl)benzamide hydrobromide] | 100.7% | 99.7% | 99.6% | – | – | – | – | 88.8% | 102.2% | 102.8% | 100.4% | – | – | – | – | – | –
Cc1ccn(-c2ccc(C(=O)N[C@@H]3CCC(F)(F)C[C@@H]3C(=O)N3CCc4c(-c5ncc[nH]5)nc5ccccc5c43)cc2)n1.Cl [Example 3, N-[(1R,2S)-4,4-difluoro-2-{(4-(1H-imidazol-2-yl)-2,3-dihydro-1H-pyrrolo[3,2-c]quinolin-1-yl]carbonyl}cyclohexyl]-4-(3-methyl-1H-pyrazol-1-yl)benzamide hydrochloride] | – | 101.4% | – | – | – | – | – | 86.8% | 102.5% | 102.9% | 100.5% | 101.7% | 100.3% | – | – | – | –
Cc1ccn(-c2ccc(C(=O)N[C@@H]3CCC(F)(F)C[C@@H]3C(=O)N3CCc4c(-c5nccn5COC(=O)C(C)(C)C)nc5ccccc5c43)cc2)n1 [Example 4, [2-(1-{[(1S,2R)-5,5-difluoro-2-({[4-(3-methyl-1H-pyrazol-1-yl)phenyl]carbonyl}amino)cyclohexyl]carbonyl)-2,3-dihydro-1H-pyrrolo[3,2-c]quinolin-4-yl)-1H-imidazol-1-yl]methyl 2,2-dimethylpropanoate] | – | – | – | 91% | 98.7% | 39.5% | -6.8% | – | – | – | – | – | – | 80.1% | 31.6% | -7.5% | –
Cc1ccn(-c2ccc(C(=O)N[C@@H]3CCC(F)(F)C[C@@H]3C(=O)N3CCc4c(-c5ncc[nH]5)nc5ccc(F)cc5c43)cc2)n1 [Example 5, N-[(1R,2S)-4,4-difluoro-2-{[8-fluoro-4-(1H-imidazol-2-yl)-2,3-dihydro-1H-pyrrolo[3,2-c]quinolin-1-yl]carbonyl}cyclohexyl]-4-(3-methyl-1H-pyrazol-1-yl)benzamide] | 100.8% | 99.8% | 96.6% | 87.1% | 100% | 102% | 100% | – | – | – | – | – | – | – | – | – | –
Cc1ccn(-c2ccc(C(=O)N[C@@H]3CCC(F)(F)C[C@@H]3C(=O)N3CCc4c(-c5ccsc5)nc5ccccc5c43)cc2)n1 [Example 7, N-[(1R,2S)-4,4-difluoro-2-{(4-thiophen-3-yl-2,3-dihydro-1H-pyrrolo[3,2-c]quinolin-1-yl)carbonyl]cyclohexyl}-4-(3-methyl-1H-pyrazol-1-yl)benzamide] | – | – | – | 83.7% | 99.3% | 100% | 98.6% | – | – | – | – | – | – | 100% | 100% | 98.8% | 102%
Cc1ccn(-c2ccc(C(=O)N[C@@H]3CCC(F)(F)C[C@@H]3C(=O)N3CCc4c(-c5ccccc5)nc5ccc(F)cc5c43)cc2)n1 [Example 9, N-{(1R,2S)-4,4-difluoro-2-[(8-fluoro-4-phenyl-2,3-dihydro-1H-pyrrolo[3,2-c]quinolin-1-yl)carbonyl]cyclohexyl}-4-(3-methyl-1H-pyrazol-1-yl)benzamide] | – | – | – | 84.1% | 96.7% | 100% | 81.9% | – | – | – | – | – | – | 101% | 99.9% | 93.8% | 99.1%
